Measured values taken from article PMC6504579 (Journal of immunology (Baltimore, Md. : 1950), 2019).
Like-named read-outs stand apart in the source and are kept apart here.

Assay type: in vitro ADME, human
Conditions: for ATK9 epitope produced (share of degradation products): representative donor; for degradation rate of substrate in CD3/CD28-stimulated vs non-stimulated extracts: paired CD4 T cell cytosolic extracts, 37 °C, pH 7.4, LC-MS/MS; for time of peak production of N-extended TW10 precursors: sampled at 2, 5 and 8 h
[1] = CD3/CD28-stimulated extract, 120 min
[2] = CD3/CD28-stimulated extract, 180 min
[3] = non-stimulated extract, 120 min
[4] = non-stimulated extract, 180 min

In the case of `CC[C@H](C)[C@H](NC(=O)[C@H](C)NC(=O)[C@@H]1CCCN1C(=O)[C@H](CO)NC(=O)CNC(=O)[C@H](CCCCN)NC(=O)[C@@H](N)Cc1c[nH]c2ccccc12)C(=O)N[C@@H](Cc1ccccc1)C(=O)N[C@@H](CCC(N)=O)C(=O)N[C@@H](CO)C(=O)N[C@@H](CO)C(=O)N[C@@H](CCSC)C(=O)N[C@H](C(=O)N[C@@H](CCCCN)C(=O)N[C@H](C(=O)N[C@@H](CC(C)C)C(=O)O)[C@@H](C)CC)[C@@H](C)O` [5-ATK9–2], the “antitopes produced (share of degradation products)” value (“antitopes produced” below) [1] is reported as 66.43%, the “ATK9 epitope produced (share of degradation products)” value (“ATK9 epitope produced” for short) [1] is reported as 0.49% and the “antitopes produced” value [2] is reported as 79.38%. The “ATK9 epitope produced” value [2] was 0.54%, the “antitopes produced” value [3] was 48.1% and the “ATK9 epitope produced” value [3] was 1.05%. For the same compound, the “antitopes produced” value [4] was 57.7%, the “ATK9 epitope produced” value [4] was 1.06% and the “degradation rate of substrate in CD3/CD28-stimulated vs non-stimulated extracts” value was “degraded faster”.
With `CC[C@H](C)[C@H](NC(=O)[C@H](CCC(N)=O)NC(=O)[C@H](CCC(=O)O)NC(=O)[C@H](CCC(N)=O)NC(=O)[C@H](CC(C)C)NC(=O)[C@@H](NC(=O)[C@H](CO)NC(=O)[C@@H](NC(=O)[C@@H](NC(=O)CNC(=O)[C@H](C)NC(=O)[C@@H](NC(=O)[C@@H](N)CC(=O)O)[C@@H](C)CC)[C@@H](C)O)[C@@H](C)O)[C@@H](C)O)C(=O)NCC(=O)N[C@@H](Cc1c[nH]c2ccccc12)C(=O)N[C@@H](CCSC)C(=O)N[C@H](C(=O)N[C@@H](CC(N)=O)C(=O)O)[C@@H](C)O` [5-TW10–3] the “time of peak production of N-extended TW10 precursors” value (activated extracts) was 2 h, the “time of peak production of N-extended TW10 precursors” value (extracts from resting CD4 T cells) was 5 h and the “degradation rate of substrate in CD3/CD28-stimulated vs non-stimulated extracts” value was “faster degradation rates”. For the same compound, the “detection of optimal TW10 at 2, 5 and 8 hours” value (paired resting and activated extracts) was “only in activated extracts”.
